This is an account of results in ChEMBL document CHEMBL3991601, “The target landscape of clinical kinase drugs” (Science, 2017).

Where a name gives a salt, the structure may show the parent alone. Activity calls are given as the source filed them. Bounds are passed on as bounds.

Assay [1] deals with T1, RNA cytidine acetyltransferase (Homo sapiens, UniProt Q9H0A0).
T1 sequence (Q9H0A0 whole entry): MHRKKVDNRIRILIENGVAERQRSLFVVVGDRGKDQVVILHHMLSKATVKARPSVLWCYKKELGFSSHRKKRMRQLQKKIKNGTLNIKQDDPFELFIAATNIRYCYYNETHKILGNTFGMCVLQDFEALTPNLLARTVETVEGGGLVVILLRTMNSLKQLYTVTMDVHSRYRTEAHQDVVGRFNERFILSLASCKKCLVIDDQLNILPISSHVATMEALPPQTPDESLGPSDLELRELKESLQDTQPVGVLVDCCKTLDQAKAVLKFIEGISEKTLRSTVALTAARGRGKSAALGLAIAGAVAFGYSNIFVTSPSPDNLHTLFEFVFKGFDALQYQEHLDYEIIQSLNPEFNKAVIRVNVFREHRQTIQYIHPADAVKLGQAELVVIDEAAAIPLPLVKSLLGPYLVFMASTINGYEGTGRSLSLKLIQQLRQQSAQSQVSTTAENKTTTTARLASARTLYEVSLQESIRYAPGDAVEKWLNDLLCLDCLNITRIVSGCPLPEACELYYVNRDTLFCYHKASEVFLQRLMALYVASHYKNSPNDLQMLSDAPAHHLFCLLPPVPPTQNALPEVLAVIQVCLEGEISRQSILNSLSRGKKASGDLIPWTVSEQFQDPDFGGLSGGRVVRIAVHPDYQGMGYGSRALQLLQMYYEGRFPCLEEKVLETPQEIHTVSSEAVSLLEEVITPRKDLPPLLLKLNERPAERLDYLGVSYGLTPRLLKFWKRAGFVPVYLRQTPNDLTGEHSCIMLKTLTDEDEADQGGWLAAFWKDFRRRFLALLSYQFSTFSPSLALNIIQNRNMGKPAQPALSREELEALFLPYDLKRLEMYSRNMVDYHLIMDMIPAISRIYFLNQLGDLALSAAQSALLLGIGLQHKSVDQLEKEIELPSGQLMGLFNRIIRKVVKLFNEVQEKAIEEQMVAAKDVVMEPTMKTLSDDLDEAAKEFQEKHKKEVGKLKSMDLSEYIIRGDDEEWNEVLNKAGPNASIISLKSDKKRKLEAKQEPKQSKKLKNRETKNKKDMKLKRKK

Assay [2] addresses T2, Adenine phosphoribosyltransferase (Homo sapiens, UniProt P07741).
T2 sequence (P07741 whole entry): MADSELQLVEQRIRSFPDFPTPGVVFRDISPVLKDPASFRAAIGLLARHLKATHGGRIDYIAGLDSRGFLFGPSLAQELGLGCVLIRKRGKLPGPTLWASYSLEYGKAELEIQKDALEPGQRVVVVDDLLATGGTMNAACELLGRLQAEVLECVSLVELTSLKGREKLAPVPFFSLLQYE

Assay [3] has as its target Receptor-interacting serine/threonine-protein kinase 3 (Homo sapiens, UniProt Q9Y572).
The target of the next assay is Myosin-10 (Homo sapiens, UniProt P35580).
Assay [4] concerns the target cAMP-dependent protein kinase catalytic subunit beta (Homo sapiens, UniProt P22694).
The target of assay [5] is 5'-AMP-activated protein kinase catalytic subunit alpha-1 (Homo sapiens, UniProt Q13131).
Assay [6] deals with T3, Mitogen-activated protein kinase kinase kinase 5 (Homo sapiens, UniProt Q99683).
T3 sequence (Q99683 whole entry): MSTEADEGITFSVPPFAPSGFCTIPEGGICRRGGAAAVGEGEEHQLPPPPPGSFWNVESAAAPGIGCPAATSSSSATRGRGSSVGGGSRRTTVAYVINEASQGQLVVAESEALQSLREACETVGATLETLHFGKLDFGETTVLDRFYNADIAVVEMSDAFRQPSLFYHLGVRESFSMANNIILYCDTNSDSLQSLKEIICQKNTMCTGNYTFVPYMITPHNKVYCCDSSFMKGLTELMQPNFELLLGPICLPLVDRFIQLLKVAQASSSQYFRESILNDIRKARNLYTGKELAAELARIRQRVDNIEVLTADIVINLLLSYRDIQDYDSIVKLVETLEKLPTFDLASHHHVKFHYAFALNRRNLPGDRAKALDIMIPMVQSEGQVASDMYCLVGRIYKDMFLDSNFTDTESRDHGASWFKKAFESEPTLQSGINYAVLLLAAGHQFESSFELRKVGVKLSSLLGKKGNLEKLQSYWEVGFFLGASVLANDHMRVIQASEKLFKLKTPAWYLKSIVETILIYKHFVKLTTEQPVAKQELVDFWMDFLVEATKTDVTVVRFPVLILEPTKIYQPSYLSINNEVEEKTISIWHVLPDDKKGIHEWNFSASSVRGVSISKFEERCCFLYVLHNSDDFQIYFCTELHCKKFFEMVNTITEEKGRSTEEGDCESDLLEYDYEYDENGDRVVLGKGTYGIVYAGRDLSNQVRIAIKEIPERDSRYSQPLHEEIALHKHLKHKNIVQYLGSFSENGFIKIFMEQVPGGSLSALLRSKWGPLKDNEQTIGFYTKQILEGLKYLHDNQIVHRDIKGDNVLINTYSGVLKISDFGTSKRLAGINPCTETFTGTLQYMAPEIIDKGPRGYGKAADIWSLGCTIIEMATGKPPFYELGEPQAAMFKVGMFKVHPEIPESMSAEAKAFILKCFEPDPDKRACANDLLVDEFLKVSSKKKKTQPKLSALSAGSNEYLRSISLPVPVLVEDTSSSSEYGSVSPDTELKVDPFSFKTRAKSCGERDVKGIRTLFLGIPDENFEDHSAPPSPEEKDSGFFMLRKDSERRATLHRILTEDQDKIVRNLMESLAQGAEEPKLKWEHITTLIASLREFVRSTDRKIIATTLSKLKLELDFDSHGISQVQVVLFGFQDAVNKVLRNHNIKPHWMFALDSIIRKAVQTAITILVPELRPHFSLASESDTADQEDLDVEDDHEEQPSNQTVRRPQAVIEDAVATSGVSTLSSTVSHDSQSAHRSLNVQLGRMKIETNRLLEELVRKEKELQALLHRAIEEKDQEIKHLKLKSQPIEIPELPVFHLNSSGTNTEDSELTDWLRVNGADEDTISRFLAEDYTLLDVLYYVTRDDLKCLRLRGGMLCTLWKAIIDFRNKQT
Also: in the data inactive means no Kd found up to 30 µM.

Chain of Myosin-10 (P35580 whole entry): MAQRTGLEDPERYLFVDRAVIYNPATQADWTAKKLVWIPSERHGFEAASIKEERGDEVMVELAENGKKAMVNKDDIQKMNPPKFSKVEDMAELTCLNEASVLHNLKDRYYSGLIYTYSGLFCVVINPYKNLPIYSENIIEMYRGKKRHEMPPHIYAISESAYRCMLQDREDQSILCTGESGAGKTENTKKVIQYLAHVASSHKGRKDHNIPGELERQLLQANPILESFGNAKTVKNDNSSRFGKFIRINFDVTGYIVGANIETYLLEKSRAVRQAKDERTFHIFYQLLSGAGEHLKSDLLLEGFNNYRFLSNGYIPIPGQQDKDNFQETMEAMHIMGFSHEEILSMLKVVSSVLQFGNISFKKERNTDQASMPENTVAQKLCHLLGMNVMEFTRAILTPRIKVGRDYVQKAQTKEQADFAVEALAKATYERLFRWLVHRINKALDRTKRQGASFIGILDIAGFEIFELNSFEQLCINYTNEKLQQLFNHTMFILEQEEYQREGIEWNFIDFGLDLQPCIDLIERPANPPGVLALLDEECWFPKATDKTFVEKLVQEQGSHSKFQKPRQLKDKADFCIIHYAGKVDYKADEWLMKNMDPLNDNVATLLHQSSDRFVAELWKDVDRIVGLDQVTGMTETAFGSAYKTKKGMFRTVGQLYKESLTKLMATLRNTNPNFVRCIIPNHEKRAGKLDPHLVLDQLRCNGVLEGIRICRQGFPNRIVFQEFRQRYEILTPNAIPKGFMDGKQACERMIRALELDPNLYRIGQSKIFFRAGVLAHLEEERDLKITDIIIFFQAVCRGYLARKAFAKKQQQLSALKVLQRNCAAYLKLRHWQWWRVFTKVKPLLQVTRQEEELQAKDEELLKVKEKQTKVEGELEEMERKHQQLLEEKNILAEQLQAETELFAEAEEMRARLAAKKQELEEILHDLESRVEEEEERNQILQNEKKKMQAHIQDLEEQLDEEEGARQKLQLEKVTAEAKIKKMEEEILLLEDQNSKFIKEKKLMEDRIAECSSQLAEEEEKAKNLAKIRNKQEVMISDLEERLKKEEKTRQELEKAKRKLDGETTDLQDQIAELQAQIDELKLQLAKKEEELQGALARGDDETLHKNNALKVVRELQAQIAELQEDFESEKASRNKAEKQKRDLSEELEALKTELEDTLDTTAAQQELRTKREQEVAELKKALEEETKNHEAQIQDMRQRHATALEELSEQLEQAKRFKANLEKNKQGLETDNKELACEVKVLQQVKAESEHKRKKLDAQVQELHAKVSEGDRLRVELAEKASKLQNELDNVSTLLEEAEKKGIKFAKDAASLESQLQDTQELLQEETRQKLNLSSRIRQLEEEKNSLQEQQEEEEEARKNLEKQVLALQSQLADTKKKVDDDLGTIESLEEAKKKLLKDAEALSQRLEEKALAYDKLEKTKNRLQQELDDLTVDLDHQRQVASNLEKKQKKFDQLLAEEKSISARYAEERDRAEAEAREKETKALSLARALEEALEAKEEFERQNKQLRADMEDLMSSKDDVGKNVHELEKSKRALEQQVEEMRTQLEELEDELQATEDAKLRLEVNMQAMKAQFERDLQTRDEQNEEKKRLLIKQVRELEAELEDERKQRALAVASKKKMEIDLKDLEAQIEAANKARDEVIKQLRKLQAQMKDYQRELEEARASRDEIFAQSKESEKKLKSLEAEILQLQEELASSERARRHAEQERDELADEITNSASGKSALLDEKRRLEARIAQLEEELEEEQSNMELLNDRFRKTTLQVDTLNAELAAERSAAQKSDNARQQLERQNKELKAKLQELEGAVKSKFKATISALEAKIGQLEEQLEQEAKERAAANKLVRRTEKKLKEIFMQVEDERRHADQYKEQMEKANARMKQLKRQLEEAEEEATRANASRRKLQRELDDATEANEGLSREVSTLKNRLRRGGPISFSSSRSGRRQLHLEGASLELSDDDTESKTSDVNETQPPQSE
Chain of Receptor-interacting serine/threonine-protein kinase 3 (Q9Y572 whole entry): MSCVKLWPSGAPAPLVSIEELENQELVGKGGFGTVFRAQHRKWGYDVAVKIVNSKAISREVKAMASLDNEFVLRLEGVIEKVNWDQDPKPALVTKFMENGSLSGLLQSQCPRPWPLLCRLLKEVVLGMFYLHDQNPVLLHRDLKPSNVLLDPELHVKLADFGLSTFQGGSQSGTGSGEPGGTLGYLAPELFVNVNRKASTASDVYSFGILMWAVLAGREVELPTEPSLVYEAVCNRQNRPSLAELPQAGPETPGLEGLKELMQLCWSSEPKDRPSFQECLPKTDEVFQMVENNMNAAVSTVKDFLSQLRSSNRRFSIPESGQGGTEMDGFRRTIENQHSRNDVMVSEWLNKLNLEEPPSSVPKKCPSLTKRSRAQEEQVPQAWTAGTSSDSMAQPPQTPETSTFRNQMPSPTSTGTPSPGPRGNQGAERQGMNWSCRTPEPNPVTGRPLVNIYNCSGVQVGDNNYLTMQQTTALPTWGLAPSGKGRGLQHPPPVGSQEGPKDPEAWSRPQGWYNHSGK
Chain of 5'-AMP-activated protein kinase catalytic subunit alpha-1 (Q13131 whole entry): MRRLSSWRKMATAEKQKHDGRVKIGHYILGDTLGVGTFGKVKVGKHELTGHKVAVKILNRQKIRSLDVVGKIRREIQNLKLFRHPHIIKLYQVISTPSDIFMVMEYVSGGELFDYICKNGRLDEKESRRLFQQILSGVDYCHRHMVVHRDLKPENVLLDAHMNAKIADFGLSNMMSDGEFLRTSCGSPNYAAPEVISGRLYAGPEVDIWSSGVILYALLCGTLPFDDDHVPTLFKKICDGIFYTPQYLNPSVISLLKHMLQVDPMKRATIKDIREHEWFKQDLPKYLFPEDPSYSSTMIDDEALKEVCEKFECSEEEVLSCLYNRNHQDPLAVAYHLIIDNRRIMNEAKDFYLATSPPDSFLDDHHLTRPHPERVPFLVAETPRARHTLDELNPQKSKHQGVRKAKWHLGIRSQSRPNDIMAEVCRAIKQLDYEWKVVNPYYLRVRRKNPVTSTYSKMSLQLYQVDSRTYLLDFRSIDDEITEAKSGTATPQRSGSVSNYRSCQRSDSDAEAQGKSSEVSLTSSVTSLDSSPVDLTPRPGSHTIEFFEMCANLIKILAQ

A word on the Kd: it is the concentration at which binding is half-saturated. For `CNC(=O)c1ccccc1Sc1ccc2c(/C=C/c3ccccn3)n[nH]c2c1` [AXITINIB], the Kd (in assay [1]; in assay [2]; in assay [3]; at Myosin-10) was > 30 µM (inactive) in each case.

In the case of `CCS(=O)(=O)N1CCN(c2ccc(Nc3ncc(C(N)=O)c(NC4CC4)n3)cc2)CC1` [Cerdulatinib Hydrochloride], the Kd is > 30 µM (inactive) in assay [1]; > 30 µM (inactive) in assay [4]; 10.8 µM (active) in assay [5]; > 30 µM (inactive) in assay [3]; > 30 µM (inactive) on Myosin-10.

For `CC(C)(C)c1nc(-c2cccc(NS(=O)(=O)c3c(F)cccc3F)c2F)c(-c2ccnc(N)n2)s1` [DABRAFENIB], the Kd in assay [1] is > 30 µM (inactive); in assay [2], > 30 µM (inactive); in assay [3] it was 0.283 µM (active); on Myosin-10 it was > 30 µM (inactive).

Take `Cn1cc(C2=C(c3cn(C4CCN(Cc5ccccn5)CC4)c4ccccc34)C(=O)NC2=O)c2ccccc21` [ENZASTAURIN]: the Kd (in assay [1]; in assay [2]; in assay [3]; on Myosin-10) was > 30 µM (inactive) in each case.

Consider `C[C@@H](Oc1cc(-n2cnc3ccc(CN4CCN(C)CC4)cc32)sc1C(N)=O)c1ccccc1C(F)(F)F` [GSK-461364], for which the Kd (in assay [1]; in assay [2]; in assay [3]; on Myosin-10) was > 30 µM (inactive) in each case.

Turning to `CCn1cc(-c2ccnc3[nH]c(-c4cccc(CN(C)C)c4)cc23)c(-c2ccc(NC(=O)N(C)C)cc2)n1` [GSK-1070916], the Kd (in assay [1]; in assay [4]; in assay [6]; in assay [5]; in assay [3]; on Myosin-10) was > 30 µM (inactive) in each case.

Regarding `O=C(Nc1cc(C(F)(F)F)cc(C(F)(F)F)c1)c1cc(Cl)ccc1O` [IMD-0354], the Kd (in assay [1]; in assay [4]; in assay [6]; in assay [3]; at Myosin-10) was > 30 µM (inactive) in each case.

As to `NC1(c2ccc(-c3nc4ccn5c(=O)[nH]nc5c4cc3-c3ccccc3)cc2)CCC1` [MK-2206], the Kd (in assay [1]; in assay [4]; in assay [6]; in assay [5]; in assay [3]; at Myosin-10) was > 30 µM (inactive) throughout.

Take `FC(F)(F)c1ccc(/C=C/c2nc(COc3ccc(CCCCn4ccnn4)cc3)co2)cc1` [MUBRITINIB]: the Kd (in assay [1]; in assay [4]; in assay [6]; in assay [5]; in assay [3]; on Myosin-10) was > 30 µM (inactive) in each case.

As to `Cc1[nH]c(/C=C2\C(=O)Nc3ccccc32)c(C)c1CCC(=O)O` [ORANTINIB], the Kd was 1.24 µM in assay [1]; > 30 µM (inactive) in assay [4]; > 30 µM (inactive) in assay [6]; > 30 µM (inactive) in assay [3]; > 30 µM (inactive) on Myosin-10.

For `CC(=O)NCC(=O)N1[C@@H]2CC[C@H]1c1ccc(Nc3ncc(C(F)(F)F)c(NC4CCC4)n3)cc12` [PF-03814735], the Kd (in assay [1]; in assay [4]; in assay [2]; in assay [3]; at Myosin-10) was > 30 µM (inactive) each time.

With `CNC(=O)c1cc(Oc2ccc(NC(=O)Nc3cc(C(C)(C)C)nn3-c3ccc4ncccc4c3)c(F)c2)ccn1` [REBASTINIB], the Kd in assay [1] was > 30 µM (inactive); in assay [4] it was > 30 µM (inactive); in assay [6], > 30 µM (inactive); in assay [5] it was > 30 µM (inactive); in assay [3] it was 1.28 µM (active); at Myosin-10, > 30 µM (inactive).

For `N#CC[C@H](C1CCCC1)n1cc(-c2ncnc3[nH]ccc23)cn1` [RUXOLITINIB], the Kd (in assay [1]; in assay [3]; at Myosin-10) was > 30 µM (inactive) throughout.

For the compound `O=c1[nH]ccc2cc(OC3CCNCC3)ccc12` [SAR-407899 FREE BASE], the Kd in assay [1], in assay [4], in assay [6], in assay [2], in assay [5] and in assay [3] was > 30 µM (inactive) in each case.

For the compound `CN1CCN(CCOc2cc(OC3CCOCC3)c3c(Nc4c(Cl)ccc5c4OCO5)ncnc3c2)CC1` [SARACATINIB], the Kd in assay [1] was > 30 µM (inactive); in assay [4] it was > 30 µM (inactive); in assay [6], > 30 µM (inactive); in assay [5] it was > 30 µM (inactive); in assay [3] it was 1.77 µM (active); at Myosin-10, > 30 µM (inactive).

For the compound `O=C1NC(=O)[C@@H](c2cn3c4c(cccc24)CCC3)[C@@H]1c1c[nH]c2ccccc12` [TIVANTINIB], the Kd in assay [1], in assay [4], in assay [6], in assay [2], in assay [5] and in assay [3] was > 30 µM (inactive) each time.

On to `Cc1cc(Nc2ncnc3ccc(NC4=NC(C)(C)CO4)cc23)ccc1Oc1ccn2ncnc2c1` [TUCATINIB], for which the Kd in assay [1] is > 30 µM (inactive); in assay [4], > 30 µM (inactive); in assay [6], > 30 µM (inactive); in assay [5] it was > 30 µM (inactive); in assay [3], 1.06 µM; on Myosin-10 it was > 30 µM (inactive).

`Cn1ncc(Cl)c1-c1cc(C(=O)N[C@H](CN)Cc2ccc(F)c(F)c2)oc1Cl` [UPROSERTIB]: the Kd in assay [1] is > 30 µM (inactive); in assay [4], 0.049 µM (active); in assay [6], > 30 µM (inactive); in assay [5] it was > 30 µM (inactive); in assay [3], > 30 µM (inactive); on Myosin-10 it was > 30 µM (inactive).
